# Laboratory results taken from ChEMBL document CHEMBL4396916, “Novel potent substituted 4-amino-2-thiopyrimidines as dual VEGFR-2 and BRAF kinase inhibitors” (Eur J Med Chem, 2019).
# pIC50: −log10 of the molar value.
# Assays:
# [1] = biological target: Vascular endothelial growth factor receptor 2 (Homo sapiens, UniProt P35968); assay: Inhibition of human N-terminal GST tagged VEGFR-2 expressed in baculovirus infected Sf9 cells using poly (Glu,Tyr) 4:1 as substrate in presence of ATP by Kinase-Glo luminescence assay
# MCF7 [2] = assay: Cytotoxicity against human MCF7 cells expressing VEGFR2 and wild type BRAF measured after 48 hrs by sulforhodamine B assay; assay type: functional, cell-based; conditions: MCF7, 48 h
# MCF7 [3] = assay: Inhibition of VEGFR2 level in human MCF7 cells at 10 uM measured after 48 hrs by ELISA relative to control; assay type: functional; conditions: MCF7, 48 h
# T47D [4] = assay: Cytotoxicity against human T47D cells expressing wild type BRAF measured after 48 hrs by sulforhodamine B assay; assay type: functional, cell-based
# A549 = assay: Growth inhibition of human A549/ATCC cells at 10 uM incubated for 48 hrs by sulforhodamine B assay relative to control; assay type: functional; conditions: A549, 48 h, read-out: GI
# EKVX = assay: Growth inhibition of human EKVX cells at 10 uM incubated for 48 hrs by sulforhodamine B assay relative to control; assay type: functional; conditions: read-out: GI
# HOP-92 = assay: Growth inhibition of human HOP92 cells at 10 uM incubated for 48 hrs by sulforhodamine B assay relative to control; assay type: functional; conditions: HOP-92, 48 h, read-out: GI
# NCI-H226 = assay: Growth inhibition of human NCI-H226 cells at 10 uM incubated for 48 hrs by sulforhodamine B assay relative to control; assay type: functional; conditions: NCI-H226, 48 h, read-out: GI
# NCI-H522 = assay: Growth inhibition of human NCI-H522 cells at 10 uM incubated for 48 hrs by sulforhodamine B assay relative to control; assay type: functional; conditions: NCI-H522, 48 h, read-out: GI
# SNB-75 = assay: Growth inhibition of human SNB75 cells at 10 uM incubated for 48 hrs by sulforhodamine B assay relative to control; assay type: functional; conditions: SNB-75, 48 h, read-out: GI
# Malme-3M = assay: Growth inhibition of human MALME-3M cells at 10 uM incubated for 48 hrs by sulforhodamine B assay relative to control; assay type: functional; conditions: read-out: GI
# UACC-62 = assay: Growth inhibition of human UACC62 cells at 10 uM incubated for 48 hrs by sulforhodamine B assay relative to control; assay type: functional; conditions: UACC-62, 48 h, read-out: GI
# IGROV-1 = assay: Growth inhibition of human IGROV1 cells at 10 uM incubated for 48 hrs by sulforhodamine B assay relative to control; assay type: functional; conditions: IGROV-1, 48 h, read-out: GI
# A498 = assay: Growth inhibition of human A498 cells at 10 uM incubated for 48 hrs by sulforhodamine B assay relative to control; assay type: functional; conditions: A498, 48 h, read-out: GI
# CAKI-1 = assay: Growth inhibition of human Caki1 cells at 10 uM incubated for 48 hrs by sulforhodamine B assay relative to control; assay type: functional; conditions: CAKI-1, 48 h, read-out: GI
# UO-31 = assay: Growth inhibition of human UO31 cells at 10 uM incubated for 48 hrs by sulforhodamine B assay relative to control; assay type: functional; conditions: UO-31, 48 h, read-out: GI
# PC-3 = assay: Growth inhibition of human PC3 cells at 10 uM incubated for 48 hrs by sulforhodamine B assay relative to control; assay type: functional; conditions: PC-3, 48 h, read-out: GI
# MDA-MB-231 = assay: Growth inhibition of human MDA-MB-231 cells at 10 uM incubated for 48 hrs by sulforhodamine B assay relative to control; assay type: functional; conditions: MDA-MB-231, 48 h, read-out: GI
# Hs-578T = assay: Growth inhibition of human Hs578T cells at 10 uM incubated for 48 hrs by sulforhodamine B assay relative to control; assay type: functional; conditions: read-out: GI
# [5] = biological target: Serine/threonine-protein kinase B-raf (Homo sapiens, UniProt P15056); assay: Inhibition of human wild type BRAF by Kinase-Glo luminescence assay
# CCRF-CEM = assay: Growth inhibition of human CCRF-CEM cells at 10 uM incubated for 48 hrs by sulforhodamine B assay relative to control; assay type: functional; conditions: read-out: GI
# K562 = assay: Growth inhibition of human K562 cells at 10 uM incubated for 48 hrs by sulforhodamine B assay relative to control; assay type: functional; conditions: K562, 48 h, read-out: GI
# MOLT-4 = assay: Growth inhibition of human MOLT4 cells at 10 uM incubated for 48 hrs by sulforhodamine B assay relative to control; assay type: functional; conditions: MOLT-4, 48 h, read-out: GI
# RPMI-8226 = assay: Growth inhibition of human RPMI8226 cells at 10 uM incubated for 48 hrs by sulforhodamine B assay relative to control; assay type: functional; conditions: RPMI-8226, 48 h, read-out: GI
# SR = assay: Growth inhibition of human SR cells at 10 uM incubated for 48 hrs by sulforhodamine B assay relative to control; assay type: functional; conditions: read-out: GI
# NCI-H23 = assay: Growth inhibition of human NCI-H23 cells at 10 uM incubated for 48 hrs by sulforhodamine B assay relative to control; assay type: functional; conditions: NCI-H23, 48 h, read-out: GI
# HCT-116 = assay: Growth inhibition of human HCT116 cells at 10 uM incubated for 48 hrs by sulforhodamine B assay relative to control; assay type: functional; conditions: HCT-116, 48 h, read-out: GI
# LOX IMVI = assay: Growth inhibition of human LOXIMVI cells at 10 uM incubated for 48 hrs by sulforhodamine B assay relative to control; assay type: functional; conditions: read-out: GI
# SK-MEL-5 = assay: Growth inhibition of human SK-MEL-5 cells at 10 uM incubated for 48 hrs by sulforhodamine B assay relative to control; assay type: functional; conditions: SK-MEL-5, 48 h, read-out: GI
# OVCAR-8 = assay: Growth inhibition of human OVCAR8 cells at 10 uM incubated for 48 hrs by sulforhodamine B assay relative to control; assay type: functional; conditions: OVCAR-8, 48 h, read-out: GI
# NCI/ADR-RES = assay: Growth inhibition of human NCI/ADR-RES cells at 10 uM incubated for 48 hrs by sulforhodamine B assay relative to control; assay type: functional; conditions: read-out: GI
# ACHN = assay: Growth inhibition of human ACHN cells at 10 uM incubated for 48 hrs by sulforhodamine B assay relative to control; assay type: functional; conditions: read-out: GI
# SN12C = assay: Growth inhibition of human SN12C cells at 10 uM incubated for 48 hrs by sulforhodamine B assay relative to control; assay type: functional; conditions: read-out: GI
# MCF7 [6] = assay: Growth inhibition of human MCF7 cells at 10 uM incubated for 48 hrs by sulforhodamine B assay relative to control; assay type: functional; conditions: MCF7, 48 h, read-out: GI
# BT-549 = assay: Growth inhibition of human BT549 cells at 10 uM incubated for 48 hrs by sulforhodamine B assay relative to control; assay type: functional; conditions: BT-549, 48 h, read-out: GI
# T47D [7] = assay: Growth inhibition of human T47D cells at 10 uM incubated for 48 hrs by sulforhodamine B assay relative to control; assay type: functional; conditions: read-out: GI
# MDA-MB-468 = assay: Growth inhibition of human MDA-MB-468 cells at 10 uM incubated for 48 hrs by sulforhodamine B assay relative to control; assay type: functional; conditions: MDA-MB-468, 48 h, read-out: GI
# Vascular endothelial growth factor receptor 2, sequence (P35968 whole entry): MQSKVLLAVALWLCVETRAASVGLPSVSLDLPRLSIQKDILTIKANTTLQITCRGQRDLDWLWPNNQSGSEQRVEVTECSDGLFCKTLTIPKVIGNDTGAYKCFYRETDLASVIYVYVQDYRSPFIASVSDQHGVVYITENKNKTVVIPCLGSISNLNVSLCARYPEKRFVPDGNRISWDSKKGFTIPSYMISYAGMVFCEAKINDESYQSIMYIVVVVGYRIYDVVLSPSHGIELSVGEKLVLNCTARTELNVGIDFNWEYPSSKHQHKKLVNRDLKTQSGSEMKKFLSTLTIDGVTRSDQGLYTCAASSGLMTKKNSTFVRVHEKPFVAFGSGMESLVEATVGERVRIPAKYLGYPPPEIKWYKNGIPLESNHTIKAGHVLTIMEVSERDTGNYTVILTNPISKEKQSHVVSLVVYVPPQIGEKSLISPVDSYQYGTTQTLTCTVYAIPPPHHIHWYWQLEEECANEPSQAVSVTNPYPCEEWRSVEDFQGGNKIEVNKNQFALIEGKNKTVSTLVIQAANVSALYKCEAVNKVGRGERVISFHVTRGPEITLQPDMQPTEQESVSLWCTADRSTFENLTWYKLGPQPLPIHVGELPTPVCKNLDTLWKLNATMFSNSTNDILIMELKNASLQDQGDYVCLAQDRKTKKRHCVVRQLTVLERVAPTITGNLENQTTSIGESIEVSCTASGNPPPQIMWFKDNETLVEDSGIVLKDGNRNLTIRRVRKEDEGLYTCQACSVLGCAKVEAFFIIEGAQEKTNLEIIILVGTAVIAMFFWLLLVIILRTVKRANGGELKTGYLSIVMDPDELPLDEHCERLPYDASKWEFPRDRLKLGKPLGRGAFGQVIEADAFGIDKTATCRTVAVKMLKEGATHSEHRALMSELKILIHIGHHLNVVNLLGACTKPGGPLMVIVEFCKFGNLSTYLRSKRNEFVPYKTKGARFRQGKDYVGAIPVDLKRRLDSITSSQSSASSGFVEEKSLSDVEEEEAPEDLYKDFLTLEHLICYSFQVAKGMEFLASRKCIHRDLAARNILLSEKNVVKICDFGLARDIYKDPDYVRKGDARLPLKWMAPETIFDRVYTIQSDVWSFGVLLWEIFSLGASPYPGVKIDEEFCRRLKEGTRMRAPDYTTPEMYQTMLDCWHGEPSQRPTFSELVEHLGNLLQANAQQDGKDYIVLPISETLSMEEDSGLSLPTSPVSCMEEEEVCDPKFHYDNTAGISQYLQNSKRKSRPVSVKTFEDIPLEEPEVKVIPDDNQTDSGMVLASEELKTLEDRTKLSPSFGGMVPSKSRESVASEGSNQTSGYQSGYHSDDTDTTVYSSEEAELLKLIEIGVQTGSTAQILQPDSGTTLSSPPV
# Serine/threonine-protein kinase B-raf, sequence (P15056 whole entry): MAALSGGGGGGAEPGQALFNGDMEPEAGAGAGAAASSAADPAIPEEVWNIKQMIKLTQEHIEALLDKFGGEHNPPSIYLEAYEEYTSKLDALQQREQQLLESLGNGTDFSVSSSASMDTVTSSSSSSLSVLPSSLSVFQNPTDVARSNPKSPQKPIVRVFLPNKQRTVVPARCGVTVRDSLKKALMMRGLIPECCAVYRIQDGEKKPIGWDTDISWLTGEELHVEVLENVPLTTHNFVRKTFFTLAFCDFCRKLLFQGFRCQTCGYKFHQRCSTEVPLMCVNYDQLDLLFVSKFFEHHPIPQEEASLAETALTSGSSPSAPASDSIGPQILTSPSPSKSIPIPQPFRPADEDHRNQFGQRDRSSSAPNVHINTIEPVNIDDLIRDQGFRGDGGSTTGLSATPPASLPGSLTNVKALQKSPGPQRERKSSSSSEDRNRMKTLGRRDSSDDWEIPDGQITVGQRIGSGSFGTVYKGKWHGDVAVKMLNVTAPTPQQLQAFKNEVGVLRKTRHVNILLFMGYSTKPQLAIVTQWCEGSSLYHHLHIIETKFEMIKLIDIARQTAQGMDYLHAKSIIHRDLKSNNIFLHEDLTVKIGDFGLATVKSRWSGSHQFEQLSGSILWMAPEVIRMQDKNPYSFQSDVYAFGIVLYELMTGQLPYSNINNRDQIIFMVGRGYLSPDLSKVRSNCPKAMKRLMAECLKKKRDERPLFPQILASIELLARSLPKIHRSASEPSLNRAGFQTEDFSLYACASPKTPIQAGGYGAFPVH
compound,measurement,setting,value
COc1ccc(C(=O)CSc2nccc(Nc3ccc(C(=O)O)cc3)n2)cc1,pIC50,[1],5.84
same,pIC50,MCF7 [2],4.42
same,inhibition at 10 µM,MCF7 [3],40%
O=C(O)c1ccc(Nc2ccnc(SCC(=O)c3ccc(-c4ccccc4)cc3)n2)cc1,pIC50,[1],6.24
same,pIC50,MCF7 [2],4.31
O=C(O)c1ccc(Nc2ccnc(SCC(=O)c3ccc(Br)cc3)n2)cc1,pIC50,[1],< 5.00
same,pIC50,MCF7 [2],4.09
O=C(O)c1ccc(Nc2ccnc(SCC(=O)c3ccc([N+](=O)[O-])cc3)n2)cc1,pIC50,[1],< 5.00
same,pIC50,MCF7 [2],4.27
CCOC(=O)c1ccc(Nc2ccnc(SCC(=O)c3ccc(Cl)cc3)n2)cc1,pIC50,[1],< 5.00
same,pIC50,MCF7 [2],4.70
COc1ccc(C(=O)CSc2nccc(Nc3ccc(C(C)=O)cc3)n2)cc1,pIC50,[1],6.31
same,pIC50,MCF7 [2],4.10
CCOC(=O)c1ccc(Nc2ccnc(SCC(=O)c3ccc(-c4ccccc4)cc3)n2)cc1,pIC50,[1],6.47
same,pIC50,MCF7 [2],4.16
N#Cc1ccc(C(=O)CSc2nccc(Nc3ccc(N4CCOCC4)cc3)n2)cc1,pIC50,[1],5.96
same,pIC50,MCF7 [2],4.16
CCOC(=O)c1ccc(Nc2ccnc(SCC(=O)c3ccc(C(F)(F)F)cc3)n2)cc1,pIC50,[1],5.71
same,pIC50,MCF7 [2],4.71
same,pIC50,T47D [4],4.49
same,inhibition at 10 µM,MCF7 [3],76%
CC(=O)c1cccc(Nc2ccnc(SCC(=O)c3ccc(Cl)cc3)n2)c1,pIC50,[1],6.32
same,pIC50,MCF7 [2],4.27
same,pIC50,T47D [4],4.48
O=C(O)c1ccc(Nc2ccnc(SCC(=O)c3ccc(C(F)(F)F)cc3)n2)cc1,pIC50,[1],< 5.00
same,inhibition of growth at 10 µM,A549,10%
same,inhibition of growth at 10 µM,EKVX,10%
same,inhibition of growth at 10 µM,HOP-92,16%
same,inhibition of growth at 10 µM,NCI-H226,13%
same,inhibition of growth at 10 µM,NCI-H522,15%
same,inhibition of growth at 10 µM,SNB-75,28%
same,inhibition of growth at 10 µM,Malme-3M,30%
same,inhibition of growth at 10 µM,UACC-62,12%
same,inhibition of growth at 10 µM,IGROV-1,13%
same,inhibition of growth at 10 µM,A498,39%
same,inhibition of growth at 10 µM,CAKI-1,19%
same,inhibition of growth at 10 µM,UO-31,32%
same,inhibition of growth at 10 µM,PC-3,12%
same,inhibition of growth at 10 µM,MDA-MB-231,24%
same,inhibition of growth at 10 µM,Hs-578T,10%
same,pIC50,MCF7 [2],4.17
N#Cc1ccc(C(=O)CSc2nccc(Nc3ccc(C(=O)O)cc3)n2)cc1,pIC50,[1],6.92
same,pIC50,[5],5.77
same,pIC50,MCF7 [2],4.76
same,inhibition at 10 µM,MCF7 [3],77%
CC(=O)c1ccc(Nc2ccnc(SCC(=O)c3ccc(Br)cc3)n2)cc1,pIC50,[1],6.02
same,inhibition of growth at 10 µM,CCRF-CEM,30%
same,inhibition of growth at 10 µM,K562,30%
same,inhibition of growth at 10 µM,MOLT-4,39%
same,inhibition of growth at 10 µM,RPMI-8226,35%
same,inhibition of growth at 10 µM,SR,25%
same,inhibition of growth at 10 µM,A549,10%
same,inhibition of growth at 10 µM,NCI-H226,25%
same,inhibition of growth at 10 µM,NCI-H23,16%
same,inhibition of growth at 10 µM,NCI-H522,29%
same,inhibition of growth at 10 µM,HCT-116,10%
same,inhibition of growth at 10 µM,SNB-75,13%
same,inhibition of growth at 10 µM,LOX IMVI,14%
same,inhibition of growth at 10 µM,SK-MEL-5,17%
same,inhibition of growth at 10 µM,UACC-62,23%
same,inhibition of growth at 10 µM,IGROV-1,12%
same,inhibition of growth at 10 µM,OVCAR-8,18%
same,inhibition of growth at 10 µM,NCI/ADR-RES,31%
same,inhibition of growth at 10 µM,A498,19%
same,inhibition of growth at 10 µM,ACHN,10%
same,inhibition of growth at 10 µM,CAKI-1,24%
same,inhibition of growth at 10 µM,SN12C,14%
same,inhibition of growth at 10 µM,UO-31,38%
same,inhibition of growth at 10 µM,PC-3,25%
same,inhibition of growth at 10 µM,MCF7 [6],18%
same,inhibition of growth at 10 µM,MDA-MB-231,12%
same,inhibition of growth at 10 µM,BT-549,19%
same,inhibition of growth at 10 µM,T47D [7],44%
same,inhibition of growth at 10 µM,MDA-MB-468,21%
same,pIC50,MCF7 [2],4.76
same,inhibition at 10 µM,MCF7 [3],76%
CCOC(=O)c1ccc(Nc2ccnc(SCC(=O)c3ccc(OC)cc3)n2)cc1,pIC50,[1],6.72
same,pIC50,[5],6.39
same,pIC50,MCF7 [2],4.49
same,pIC50,T47D [4],4.36
same,inhibition at 10 µM,MCF7 [3],12%
O=C(O)c1ccc(Nc2ccnc(SCC(=O)c3ccc(Cl)cc3)n2)cc1,pIC50,[1],6.77
same,pIC50,[5],6.43
same,pIC50,MCF7 [2],4.43
same,inhibition at 10 µM,MCF7 [3],35%
CNC(=O)c1cc(Oc2ccc(NC(=O)Nc3ccc(Cl)c(C(F)(F)F)c3)cc2)ccn1 [SORAFENIB],pIC50,MCF7 [2],5.36
same,pIC50,T47D [4],5.80
same,inhibition at 10 µM,MCF7 [3],90%
